Experiment [1] has as its target Human immunodeficiency virus type 1 reverse transcriptase (Human immunodeficiency virus 1, UniProt Q72547). Briefly: Inhibition of wild type HIV1 reverse transcriptase by scintillation proximity assay.
The subject of experiment [2] is Human immunodeficiency virus 1. Briefly: Antiviral activity against HIV1 with transcriptase […] mutation infected in human C8166 cells assessed as inhibition of viral replication after 3 days by ELISA. Format: functional, organism-based. To be noted: Human immunodeficiency virus 1, C8166, 72 h.
Experiment [3] concerns Human immunodeficiency virus 1. In words: Antiviral activity against HIV1 infected in human C8166 cells assessed as inhibition of viral replication after 3 days by ELISA. Format: functional, organism-based. Conditions: Human immunodeficiency virus 1, C8166, 72 h.

Turning to `Cc1ccc(-n2nnnc2SCC(=O)Nc2ccc(-c3ccc(OCC(=O)O)cc3)cc2Cl)c(Cl)c1`, half-maximal inhibition in experiment [1] (IC50) required 1.9 nM.
Take `Cc1[nH]nc(OCC(=O)Nc2ccc(-c3ccc(CC(=O)O)cc3)cc2Cl)c1-c1ccc(C(C)(C)C)cc1Cl`: the half-inhibitory concentration (IC50) in experiment [1] amounted to 2090 nM.
Same read-out and setting: for `Cc1ccc(-n2cc(C)nc2SCC(=O)Nc2ccccc2Cl)c(Cl)c1` the value was over 1000 nM.
In experiment [1], `Cc1[nH]nc(OCC(=O)Nc2ccc(C#CC(C)(C)C(=O)O)cc2Cl)c1-c1ccc(C(C)(C)C)cc1Cl` came in with a half-maximal inhibitory concentration (IC50) of 2400 nM. Further, the 50% effective concentration (EC50) worked out at 73 nM in experiment [2] and 3880 nM in experiment [3].
The compound `Cc1ccc(-c2ccccc2OCC(=O)Nc2ccc(-c3ccc(CC(=O)O)cc3)cc2Cl)c(Cl)c1` came in with an IC50 in experiment [1] of 177 nM.
Still for that read-out and setting: under `Cc1ccc(-c2c(SCC(=O)Nc3ccc(-c4ccc(CC(=O)O)cc4)cc3Cl)cnn2C)c(Cl)c1` stands 1.9 nM.
As for `Cc1ccc(-c2c(SCC(=O)Nc3ccc(-c4ccc(OCC(=O)O)cc4)cc3Cl)ccn2C)c(Cl)c1`, the 50% inhibitory concentration (IC50) in experiment [1] is over 1000 nM.
Same read-out and setting: under `Cc1ccc(-n2c(C)cnc2SCC(=O)Nc2ccc(-c3ccc(CC(=O)O)cc3)cc2Cl)c(Cl)c1` stands 9.5 nM.
Compound `Cc1ccc(-c2nnsc2SCC(=O)Nc2ccc(-c3ccc(CC(=O)O)cc3)cc2Cl)c(Cl)c1` showed an IC50 in experiment [1] of 2 nM.
As for `Cc1ccc(-c2ncsc2SCC(=O)Nc2ccc(-c3ccc(CC(=O)O)cc3)cc2Cl)c(Cl)c1`, half-maximal inhibition in experiment [1] (IC50) was put at 200 nM.
The same measure, in the same setting: under `C/C(=C/CCC(=O)Nc1ccc(-c2ccc(OCC(=O)O)cc2)cc1Cl)c1ccc(C)cc1Cl` stands 15 nM; under `C/C(=C\CCC(=O)Nc1ccc(-c2ccc(OCC(=O)O)cc2)cc1Cl)c1ccc(C)cc1Cl`, 272 nM.
Turning to `Cc1ccc(-c2ncoc2SCC(=O)Nc2ccc(-c3ccc(CC(=O)O)cc3)cc2Cl)c(Cl)c1`, the 50% inhibitory concentration (IC50) in experiment [1] turned out to be 365 nM.
Compound `CC(C)(C)c1ccc(-c2c[nH]nc2OCC(=O)Nc2ccc(-c3ccc(CC(=O)O)cc3)cc2Cl)c(Cl)c1` had an IC50 in experiment [1] of over 3300 nM. Moreover, the EC50 in experiment [2] stood at 444 nM; in experiment [3] it was 4870 nM.
Take `Cc1ccc(-n2nccc2SCC(=O)Nc2ccc(-c3ccc(CC(=O)O)cc3)cc2Cl)c(Cl)c1`: half-maximal inhibition in experiment [1] (IC50) required 7.9 nM.
In experiment [1], `Cc1ccc(-n2ncc(C)c2SCC(=O)Nc2ccc(-c3ccc(CC(=O)O)cc3)cc2Cl)c(Cl)c1` showed an IC50 of over 10000 nM.
In turn, `Cc1ccc(-n2nccc2OCC(=O)Nc2ccc(-c3ccc(CC(=O)O)cc3)cc2Cl)c(Cl)c1` returned a 50% inhibitory concentration (IC50) in experiment [1] of 18 nM.
In turn, `Cc1ccc(-c2ccccc2SCC(=O)Nc2ccc(-c3ccc(CC(=O)O)cc3)cc2Cl)c(Cl)c1` had an IC50 in experiment [1] of 18 nM.
On the same count and under the same terms, for `Cc1ccc(-n2nncc2SCC(=O)Nc2ccc(-c3ccc(CC(=O)O)cc3)cc2Cl)c(Cl)c1` the value was 2.4 nM.
As for `Cc1[nH]nc(OCC(=O)Nc2ccc(C#CC(C)(C)CO)cc2Cl)c1-c1ccc(C(C)(C)C)cc1Cl`, the half-maximal inhibitory concentration (IC50) in experiment [1] is over 3330 nM. The concentration giving a half-maximal response (EC50) is 177 nM in experiment [2] and over 5000 nM in experiment [3].
`C/C(=C/CCC(=O)Nc1ccc(-c2ccc(CC(=O)O)cc2)cc1Cl)c1ccc(C)cc1Cl` returned an IC50 in experiment [1] of 2.4 nM.
